Test results taken from patent US12624034B2, “Non-covalent modifiers of AKT1 and uses thereof” (Terremoto Biosciences, Inc., priority 2023, dated 2026).
Read-outs that look alike come from different tables or passages of the source.

Experiments:
AKT1 E17K = biological target: T1, AKT1 E17K (Homo sapiens, UniProt P31749, E17K); assay: Live cell AKT1 E17K target engagement by NanoBRET competitive probe displacement in HEK293 cells; format: binding; settings: 2 h at 37° C.
T1 construct: expressed in transfected cells; host or cells: HEK293
T1 sequence (P31749 whole entry E17K): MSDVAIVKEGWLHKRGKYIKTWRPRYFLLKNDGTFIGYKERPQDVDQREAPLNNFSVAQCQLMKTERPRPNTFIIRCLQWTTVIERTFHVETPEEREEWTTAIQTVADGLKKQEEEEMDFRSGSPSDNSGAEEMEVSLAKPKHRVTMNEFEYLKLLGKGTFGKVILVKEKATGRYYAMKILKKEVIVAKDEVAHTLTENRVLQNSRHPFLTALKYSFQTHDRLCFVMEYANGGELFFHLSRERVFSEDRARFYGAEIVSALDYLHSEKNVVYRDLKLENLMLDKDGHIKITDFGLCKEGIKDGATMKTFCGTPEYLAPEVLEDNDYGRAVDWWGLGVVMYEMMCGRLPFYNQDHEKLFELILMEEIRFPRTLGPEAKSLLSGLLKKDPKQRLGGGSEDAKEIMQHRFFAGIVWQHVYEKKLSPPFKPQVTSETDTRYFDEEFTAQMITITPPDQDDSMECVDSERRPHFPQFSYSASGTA
Protocol: Determining live cell AKT1 E17K, AKT1 WT, and AKT2 target engagement by NanoBRET competitive probe displacement. Live cell target engagement assays were performed as described (Vasta, J. D. et al. Cell Chem Biol 2018, 25(11), 206-214). Briefly, HEK293 cells were transfected with plasmids encoding kinase-NanoLuciferase fusion proteins overnight. Cells were then treated with serial dilutions of compound and an ˜EC50 concentration of fluorescently-tagged ATP-competitive tracer (Promega). After incubation for 2 h at 37° C., luciferase substrate and extracellular luciferase inhibitor were added to all wells, and luminescent intensity at 460 nm and 600 nm were measured on a multimode plate-reader. The ratio of E600/E460 was calculated to give the tracer engagement signal (BRET). IC50 values were calculated by fitting BRET values to a log(inhibitor) vs. response Hill equation.

AKT2 = biological target: T2, AKT2 (Homo sapiens, UniProt P31751); assay: Live cell AKT2 target engagement by NanoBRET competitive probe displacement in HEK293 cells; format: binding; settings: 2 h at 37° C., read-out: AKT2 IC50
T2 construct: expressed in transfected cells; host or cells: HEK293
T2 sequence (P31751 whole entry): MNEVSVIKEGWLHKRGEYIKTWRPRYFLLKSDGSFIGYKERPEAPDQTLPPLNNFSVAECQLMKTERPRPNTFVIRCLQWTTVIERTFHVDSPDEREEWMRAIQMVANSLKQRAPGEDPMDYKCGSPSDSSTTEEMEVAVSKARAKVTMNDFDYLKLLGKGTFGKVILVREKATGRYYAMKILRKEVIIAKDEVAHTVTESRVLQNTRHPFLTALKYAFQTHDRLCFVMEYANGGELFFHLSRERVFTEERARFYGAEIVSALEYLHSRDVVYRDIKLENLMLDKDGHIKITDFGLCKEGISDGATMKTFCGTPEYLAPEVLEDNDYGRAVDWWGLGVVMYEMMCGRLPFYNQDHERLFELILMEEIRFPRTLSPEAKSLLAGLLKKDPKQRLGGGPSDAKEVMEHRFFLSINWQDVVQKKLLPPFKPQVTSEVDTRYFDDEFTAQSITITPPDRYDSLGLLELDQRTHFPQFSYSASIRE

[1] = system: LAPC4 prostate cancer cells, which express the AKT1 E17K allele; assay: Antiproliferative effects in LAPC4 cells (CellTiter Glo, 72 h); format: cell-based; settings: Homo sapiens, LAPC4, 72 h, read-out: LAPC4 proliferation IC50
Protocol: Antiproliferative Effects in LAPC4 Cells.
LAPC4 prostate cancer cells (Klein, K. A. et al. Nat Med 1997, 3, 402-408), which express the AKT1 E17K allele, were grown in IMDM media (Hyclone) supplemented with 12% FBS+1% P/S. To assess compound effects on growth, 1,000 cells/well were seeded in 384 well assay plates, incubated with compound dilutions dissolved in DMSO. After 72 h, intracellular ATP content was assessed with CellTiter Glo reagent (Promega) according to the manufacturer's instructions. IC50 values were calculated by fitting luminescence values to a log(inhibitor) vs. response Hill equation.

AKT1 WT = biological target: T3, AKT1 WT (Homo sapiens, UniProt P31749); assay: Live cell AKT1 WT target engagement by NanoBRET competitive probe displacement in HEK293 cells; format: binding; settings: 2 h at 37° C., read-out: AKT1 WT IC50
T3 construct: expressed in transfected cells; host or cells: HEK293
T3 sequence (P31749 whole entry): as the sequence (P31749 whole entry E17K) above, with K17E counted along it

[2] = NanoBRET live cell target engagement, HEK293 cells
[3] = NanoBRET competitive probe displacement, live HEK293 cells

SMILES | IC50 (AKT1 E17K; [2]) | IC50 (AKT2; [2]) | IC50 [1] | IC50 (AKT1 WT; [2]) | IC50 (AKT1 E17K; [3]) | IC50 (AKT2; [3]) | IC50 (AKT1 WT; [3])
COc1cc(C(=O)N[C@H]2CCc3cc(-n4c(-c5cccnc5N)nc5ccc(-n6cccn6)nc54)ccc32)cc(F)c1F [Compound 3, (S)—N-(5-(2-(2-aminopyridin-3-yl)-5-(1H-pyrazol-1-yl)-3H-imidazo[4,5-b]pyridin-3-yl)-2,3-dihydro-1H-inden-1-yl)-3,4-difluoro-5-methoxybenzamide] | 120 nM | 132 nM | 1710 nM | 7.21 nM | – | – | –
Nc1ncccc1-c1nc2ccc(-n3cccn3)nc2n1-c1ccc2c(c1)CC[C@@H]2NC(=O)c1ccc2nccn2c1 [Compound 17, (S)—N-(5-(2-(2-aminopyridin-3-yl)-5-(1H-pyrazol-1-yl)-3H-imidazo[4,5-b]pyridin-3-yl)-2,3-dihydro-1H-inden-1-yl)imidazo[1,2-a]pyridine-6-carboxamide] | 41.2 nM | 90.6 nM | 1020 nM | 5.78 nM | – | – | –
Cc1ccc(C(=O)N[C@H]2CCc3cc(-n4c(-c5ccccc5F)nc5ccc(-n6cccn6)nc54)ccc32)cn1 [Compound 401] | – | – | 4210 nM | – | 108 nM | 2730 nM | 10.9 nM
COc1ccc(C(=O)N[C@H]2CCc3cc(-n4c(-c5cccnc5N)nc5ccc(-n6nccn6)nc54)ccc32)cn1 [Compound 371] | 47.8 nM | 1280 nM | 1050 nM | 15.4 nM | – | – | –
Nc1ncccc1-c1nc2ccc(-n3cccn3)nc2n1-c1ccc2c(c1)CC[C@@H]2NC(=O)c1ccc(F)c(F)c1 [Compound 262] | 68.1 nM | 211 nM | 2340 nM | 8.14 nM | – | – | –
Nc1ncccc1-c1nc2ccc(-n3cccn3)nc2n1-c1ccc2c(c1)CC(F)[C@@H]2NC1CCN(C(=O)C2CC2)CC1 (single isomer, unassigned) [Compound 386] | > 487 nM | 1310 nM | > 7160 nM | 17.6 nM | – | – | –
Nc1ncccc1-c1nc2ccc(-n3cccn3)nc2n1-c1ccc2c(c1)CC[C@@H]2NC(=O)c1cncnc1C(F)F [Compound 116] | 157 nM | 303 nM | 5240 nM | 10.2 nM | – | – | –
Nc1ncccc1-c1nc2ccc(-n3cccn3)nc2n1-c1ccc2c(c1)CC[C@@H]2NC1CN(c2ccccn2)C1 [Compound 439] | – | – | 3820 nM | – | 655 nM | 794 nM | 15 nM
COc1cc(C(=O)N[C@H]2CCc3cc(-n4c(-c5cccnc5N)nc5ccc(-n6nccn6)nc54)ccc32)cnc1C(F)F [Compound 364] | 260 nM | 1110 nM | 2320 nM | 20.7 nM | – | – | –
Nc1ncccc1-c1nc2ccc(-n3nccn3)nc2n1-c1ccc2c(c1)CC[C@@H]2NC1CCN(c2ccccn2)CC1 [Compound 366] | 818 nM | 4380 nM | > 10000 nM | 70.9 nM | – | – | –
Nc1ncccc1-c1nc2ccc(-n3cccn3)nc2n1-c1ccc2c(c1)CC[C@@H]2NC(=O)C1CC1 [Compound 37, N-[(1S)-5-[2-(2-aminopyridin-3-yl)-5-(pyrazol-1-yl)imidazo[4,5-b]pyridin-3-yl]-2,3-dihydro-1H-inden-1-yl]cyclopropanecarboxamide] | > 1000 nM | 7720 nM | > 10000 nM | 175 nM | – | – | –
Nc1ncccc1-c1nc2ccc(-n3cccn3)nc2n1-c1ccc2c(c1)CC[C@@H]2NC(=O)c1ccc(O)c(F)c1 [Compound 16, (S)—N-(5-(2-(2-aminopyridin-3-yl)-5-(1H-pyrazol-1-yl)-3H-imidazo[4,5-b]pyridin-3-yl)-2,3-dihydro-1H-inden-1-yl)-3-fluoro-4-hydroxybenzamide] | 10.2 nM | 66.5 nM | 560 nM | 2.41 nM | – | – | –
COc1ccc(C(=O)N[C@H]2CCc3cc(-n4c(-c5cccnc5N)nc5ccc(-n6cccn6)nc54)ccc32)cc1 [Compound 12, (S)—N-(5-(2-(2-aminopyridin-3-yl)-5-(1H-pyrazol-1-yl)-3H-imidazo[4,5-b]pyridin-3-yl)-2,3-dihydro-1H-inden-1-yl)-4-methoxybenzamide] | 10.5 nM | 38.1 nM | 740 nM | 7.56 nM | – | – | –
